From patent US11149056B2, “C7 substituted oxysterols and methods of use thereof” (Sage Therapeutics, Inc., priority 2016, dated 2021) come the findings set out here.

A value given as a limit tells only on which side of the number the result lay.

Experiment [1] has as its target glutamate-activated channels of the GRIN1/2A subtype (Homo sapiens (Human), UniProt Q05586+Q12879). In words: Automated patch-clamp (QPatch HTX), NMDA receptor GRIN1/2A in HEK 293 cells. In kind it is cell-based. Particulars: HEK 293 cells stably transfected with GRIN1/2A; 300 μM NMDA + 8 μM glycine; holding potential −80 mV; read-out: AVG_ EC50 2A. Here is the method: (§1) Automated Patch-Clamp System (OPatch HTX)
In this study, HEK 293 cells stably transfected with glutamate-activated channels of the GRIN1/2A subtype will be used together with submaximal NMDA concentrations (300 μM NMDA, co-application with 8 μM Glycine) to investigate the negative allosteric modulation of the test compounds.
(§2) In general, cells will be passaged at a confluence of about 80% to […]. For electrophysiological measurements cells will be harvested at a confluence of about 80% to 90% from sterile culture flasks containing culture complete medium. Cells will be transferred as suspension in PBS to the QPatch 16X or QPatch HTX system to; the centrifuge/washer directly. Standard Laboratory Conditions; Cells will be incubated at 37° C. in a humidified atmosphere with 5% CO2 (rel. humidity about 95%). Culture media: The cells will be continuously maintained in and passaged in sterile culture flasks containing a 1:1 mixture of Dulbecco's modified eagle medium and nutrient mixture F-12 (D-MEM/F-12 1×, liquid, with L-Glutamine) supplemented with 10% fetal bovine serum, 1% Penicillin/Streptomycin solution, and 50 μM AP-5 blocker. Antibiotics: The complete medium as indicated above is supplemented with 100 μg/mL hygromycin, 15 μg/mL blasticidin and 1 μg/mL puromycin. Induction of Expression-. 2.5 μg/mL tetracycline is added 24 h before start of experiments. Dose Formulation Dose levels are in terms of test compounds, as supplied. Vehicle will be added to achieve a stock concentration of 10 mM (storage at −10° C. to −30° C.). A further stock solutions of 1.0 mM will be prepared in DMSO. Details of stock solution usage (thawing, dose formulations) will be documented in the raw data. The time period of stock solution usage will be detailed in the report. Test Compound Concentrations Dose levels, are in terms of test compounds, as supplied. Vehicle will be added to achieve a stock concentration of 10 mM (storage at −10° C. to −30° C.). A further stock solutions of 1.0 mM will be prepared in DMSO. Details of stock solution usage (thawing, dose formulations) will be documented in the raw data. The time period of stock solution usage will be detailed in the report. One test concentration of 1.0 μM will be tested. All test solutions will be prepared by diluting the stock solutions with either Mg-free bath solution only or Mg-free bath solution containing NMDA (300 μM) and glycine (8.0 μM) shortly prior to the electrophysiological experiments and kept at room temperature (19° C. to 30° C.) when in use. 0.1% DMSO will be used as vehicle. Frequency of preparation. For each test concentration, fresh solutions of test compounds will be prepared every day. Stability of dose formulation: All preparation times will be documented in the raw data. Any observations regarding instability of test compounds will be mentioned in the raw data. Storage of dose formulation: On the day of experimentation dose formulations will be maintained at room temperature (19° C. to 30° C.) when in use, Bath Solutions For preparing the experiments and for formation of the giga-ohm-seal, the following standard bath solution will be used: Sodium Chloride: 137 mM; Potassium Chloride: 4 mM; Calcium Chloride: 1.8 mM; Magnesium Chloride: 1 mM; HEPES: 10 mM; D-Glucose: 10 mM; Cremophor: 0.02%; pH (NaOH): 7.4
The 1× bath solution will be prepared by diluting 10× bath solution without Glucose and 100× Glucose solution with water at least every 7 days. Both stock solutions have been prepared prior to the experimental start of the present study and stored at 1° C. to 9° C. (10× bath solution) or −10° C. to −30° (100× Glucose solution). The batch number(s) of the bath solution(s) used in the experiments will be documented in the raw data. When muse, the 1× bath solution will be kept at room temperature (19° C. to 30° C.). When not in use, the 1× bath solution will be stored at 1° C. to 9° C.
After the giga-seal was formed the following Mg-free bath solution will be used: […]
(The patch-clamp technique gives a direct electrical read-out from membranes.)

In the next experiment the target is NMDA receptor 2B (Homo sapiens (Human), UniProt Q05586+Q13224). In words: Automated patch-clamp (QPatch HTX), NMDA receptor 2B subtype. Particulars: for Emax: read-out: AVG_ EMAX 2B %. It counts as cell-based. The method, then:
as §1, §2
The 1× intracellular solution will be thawed every day out of a frozen 1× intracellular solution, which has been prepared prior to the experimental start of the present study, aliquoted and stored at −10° C. to −30° C. When in use, the 1× intracellular solution will kept at room temperature (19° C. to 30° C.). Remaining 1× intracellular solution will be stored in the fridge (1° C. to 9° C.). The 1× intracellular solution will include the components outlined below: Potassium Chloride: 130 mM; Magnesium Chloride: 1 mM; Mg-ATP: 5 mM; HEPES: 10 mM; EGTA: 5 mM; pH (KOH): 7.2 Cell Treatment For this study, cells will continuously be perfused with NMDA/Glycine, Test Compound or Test Compound/NMDA/Glycin. In every case, at least 30-second prewash steps with a test compound will be performed in between applications. For details see Table A below. Each experiment type will be analyzed in at least n=3 isolated cells. […]

Chain of glutamate-activated channels of the GRIN1/2A subtype (Q12879 23-1464, other chains not shown): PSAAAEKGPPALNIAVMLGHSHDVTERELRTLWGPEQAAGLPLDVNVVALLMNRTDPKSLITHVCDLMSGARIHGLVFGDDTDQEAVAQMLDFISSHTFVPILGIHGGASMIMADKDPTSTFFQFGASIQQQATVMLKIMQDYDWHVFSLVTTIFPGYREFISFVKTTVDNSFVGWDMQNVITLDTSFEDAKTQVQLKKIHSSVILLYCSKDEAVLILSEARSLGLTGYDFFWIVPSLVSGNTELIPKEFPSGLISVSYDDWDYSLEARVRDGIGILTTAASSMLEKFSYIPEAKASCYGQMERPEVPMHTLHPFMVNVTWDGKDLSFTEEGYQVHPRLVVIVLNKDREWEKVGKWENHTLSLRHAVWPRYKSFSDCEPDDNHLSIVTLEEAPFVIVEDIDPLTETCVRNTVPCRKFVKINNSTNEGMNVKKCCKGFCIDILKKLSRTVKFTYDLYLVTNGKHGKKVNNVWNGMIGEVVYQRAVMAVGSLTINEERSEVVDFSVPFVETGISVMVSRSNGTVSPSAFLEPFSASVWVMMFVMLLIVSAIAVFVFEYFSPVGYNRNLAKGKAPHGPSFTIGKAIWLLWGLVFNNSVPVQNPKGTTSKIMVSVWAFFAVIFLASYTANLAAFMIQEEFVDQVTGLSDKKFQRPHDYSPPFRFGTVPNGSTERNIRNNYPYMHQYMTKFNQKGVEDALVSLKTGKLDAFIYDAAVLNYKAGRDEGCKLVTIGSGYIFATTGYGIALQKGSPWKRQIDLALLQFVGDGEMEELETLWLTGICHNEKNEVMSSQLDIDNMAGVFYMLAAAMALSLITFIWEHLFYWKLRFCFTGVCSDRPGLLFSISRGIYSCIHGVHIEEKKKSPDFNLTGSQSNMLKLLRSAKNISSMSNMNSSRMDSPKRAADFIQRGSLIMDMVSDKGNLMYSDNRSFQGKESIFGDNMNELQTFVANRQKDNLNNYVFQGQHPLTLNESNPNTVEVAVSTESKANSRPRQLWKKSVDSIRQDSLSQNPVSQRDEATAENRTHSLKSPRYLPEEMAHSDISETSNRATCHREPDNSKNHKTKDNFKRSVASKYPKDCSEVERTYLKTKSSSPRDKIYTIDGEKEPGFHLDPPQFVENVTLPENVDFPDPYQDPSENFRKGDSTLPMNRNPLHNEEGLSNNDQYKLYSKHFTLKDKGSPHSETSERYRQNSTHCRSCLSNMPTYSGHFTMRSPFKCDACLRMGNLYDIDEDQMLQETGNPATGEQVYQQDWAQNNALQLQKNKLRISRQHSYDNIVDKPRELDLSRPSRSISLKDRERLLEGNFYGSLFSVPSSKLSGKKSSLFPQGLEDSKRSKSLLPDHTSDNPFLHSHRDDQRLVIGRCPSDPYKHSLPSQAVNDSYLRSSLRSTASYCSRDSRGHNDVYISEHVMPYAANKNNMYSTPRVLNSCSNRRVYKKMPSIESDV
Chain of NMDA receptor 2B (Q13224 27-1484, other chains not shown): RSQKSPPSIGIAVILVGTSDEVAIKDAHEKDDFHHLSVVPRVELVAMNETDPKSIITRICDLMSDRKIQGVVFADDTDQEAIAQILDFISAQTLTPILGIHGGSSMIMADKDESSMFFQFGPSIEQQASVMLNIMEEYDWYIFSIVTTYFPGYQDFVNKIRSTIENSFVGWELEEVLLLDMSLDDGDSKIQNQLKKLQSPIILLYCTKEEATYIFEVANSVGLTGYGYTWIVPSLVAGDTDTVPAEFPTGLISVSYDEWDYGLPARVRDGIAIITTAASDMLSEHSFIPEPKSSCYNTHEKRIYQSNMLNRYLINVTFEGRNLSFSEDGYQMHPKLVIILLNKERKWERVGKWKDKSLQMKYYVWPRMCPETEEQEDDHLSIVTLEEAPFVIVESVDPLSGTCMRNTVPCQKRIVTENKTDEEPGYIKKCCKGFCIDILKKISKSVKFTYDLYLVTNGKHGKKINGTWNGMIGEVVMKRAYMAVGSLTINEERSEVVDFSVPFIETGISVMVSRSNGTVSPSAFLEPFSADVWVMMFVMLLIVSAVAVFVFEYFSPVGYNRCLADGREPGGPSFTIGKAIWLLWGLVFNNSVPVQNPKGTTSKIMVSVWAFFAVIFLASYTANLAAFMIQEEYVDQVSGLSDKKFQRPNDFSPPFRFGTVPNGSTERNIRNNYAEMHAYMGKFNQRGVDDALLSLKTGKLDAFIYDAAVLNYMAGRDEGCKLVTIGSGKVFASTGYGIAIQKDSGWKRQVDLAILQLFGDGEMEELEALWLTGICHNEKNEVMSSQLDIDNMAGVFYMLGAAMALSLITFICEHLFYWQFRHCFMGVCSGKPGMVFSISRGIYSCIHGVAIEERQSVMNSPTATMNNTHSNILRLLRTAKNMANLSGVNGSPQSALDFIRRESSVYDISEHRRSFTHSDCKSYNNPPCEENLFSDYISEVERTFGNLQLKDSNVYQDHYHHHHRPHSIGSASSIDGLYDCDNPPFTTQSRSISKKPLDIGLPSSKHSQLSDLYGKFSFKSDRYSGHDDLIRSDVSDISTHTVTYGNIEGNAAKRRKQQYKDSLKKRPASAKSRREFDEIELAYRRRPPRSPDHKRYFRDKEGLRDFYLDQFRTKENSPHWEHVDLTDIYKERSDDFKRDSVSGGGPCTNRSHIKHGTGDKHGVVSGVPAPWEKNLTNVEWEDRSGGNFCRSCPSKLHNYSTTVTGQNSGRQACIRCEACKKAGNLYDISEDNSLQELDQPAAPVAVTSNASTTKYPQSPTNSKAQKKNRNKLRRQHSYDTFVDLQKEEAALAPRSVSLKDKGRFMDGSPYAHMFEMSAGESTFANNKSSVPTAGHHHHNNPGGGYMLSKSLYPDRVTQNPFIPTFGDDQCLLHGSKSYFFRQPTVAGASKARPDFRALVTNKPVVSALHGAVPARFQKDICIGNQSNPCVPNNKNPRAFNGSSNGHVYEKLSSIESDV

For `CC[C@]1(O)CC[C@@]2(C)C(=C[C@@H](C)[C@H]3[C@@H]4CC[C@H]([C@H](C)CCC(C)(C)O)[C@@]4(C)CC[C@@H]32)C1` [Compound U6408], the EC50 in experiment [1] stood at 230 nM. For the same molecule, on NMDA receptor 2B, the EC50 was found to be 132 nM and the maximum response (Emax) was determined as 447%.

Consider `CC[C@]1(O)CC[C@@]2(C)C(=C[C@H](C)[C@H]3[C@@H]4CC[C@H]([C@H](C)CCC(C)(C)O)[C@@]4(C)CC[C@@H]32)C1` [Compound U6409], for which the EC50 in experiment [1] is above 10000 nM. For the same molecule, at NMDA receptor 2B, the EC50 was above 10000 nM and the Emax stood at 71%.

As to `CC[C@]1(O)CC[C@@]2(C)[C@@H](CC(=O)[C@@H]3[C@@H]2CC[C@]2(C)[C@@H]([C@H](C)CCC(C)(C)O)CC[C@@H]32)C1` [Compound U6410], the EC50 (in experiment [1]; at NMDA receptor 2B) was above 10000 nM throughout. Further, the Emax on NMDA receptor 2B is 44%.

Consider `CC[C@]1(O)CC[C@@]2(C)C(=C[C@H](O)[C@H]3[C@@H]4CC[C@H]([C@H](C)CCC(C)(C)O)[C@@]4(C)CC[C@@H]32)C1` [Compound U6429], for which, at NMDA receptor 2B, a half-maximal effect (EC50) was put at 667 nM and the Emax came to 109%.

As to `CC[C@]1(O)CC[C@@]2(C)C(=C[C@](C)(O)[C@H]3[C@@H]4CC[C@H]([C@H](C)CCC(C)(C)O)[C@@]4(C)CC[C@@H]32)C1` [Compound U6437], the EC50 in experiment [1] was determined as 1620 nM. Besides, at NMDA receptor 2B, the EC50 came to 741 nM and the Emax is 213%.

Take `CC[C@]1(O)CC[C@@]2(C)C(=C[C@@](C)(O)[C@H]3[C@@H]4CC[C@H]([C@H](C)CCC(C)(C)O)[C@@]4(C)CC[C@@H]32)C1` [Compound U6438]: in experiment [1], the EC50 is above 10000 nM. Moreover, at NMDA receptor 2B, the EC50 was above 10000 nM and the Emax came out at 15%.

Regarding `CC[C@]1(O)CC[C@@]2(C)C(=C[C@@H](O)[C@H]3[C@@H]4CC[C@H]([C@H](C)CCC(C)(C)O)[C@@]4(C)CC[C@@H]32)C1` [Compound U6450], at NMDA receptor 2B, the response was half-maximal at 66 nM (EC50) and the Emax came to 111%.

For `CC[C@]1(O)CC[C@@]2(C)C(=CC(=O)[C@H]3C4CC[C@H]([C@H](C)CCC(C)(C)O)[C@@]4(C)CC[C@@H]32)C1` (some centres unmarked) [Compound U6461], the EC50 in experiment [1] is above 10000 nM. Besides, at NMDA receptor 2B, the EC50 is above 10000 nM and the Emax was 53%.

Take `C[C@@H]1C=C2C[C@@](C)(O)CC[C@]2(C)[C@H]2CC[C@]3(C)[C@@H]([C@H](C)CC[C@](C)(O)C(F)(F)F)CC[C@H]3[C@H]12` [Compound U6472]: on NMDA receptor 2B, a half-maximal effect (EC50) was put at 22 nM and the Emax was determined as 231%.

As for `C[C@H](CC[C@](C)(O)C(F)(F)F)[C@H]1CC[C@H]2[C@@H]3[C@@H](C)C=C4C[C@@](C)(O)CC[C@]4(C)[C@H]3CC[C@]12C` [Compound U6473], on NMDA receptor 2B, the EC50 was above 10000 nM and the Emax was determined as 47%.

Consider `C[C@@H]1C=C2C[C@@](C)(O)CC[C@]2(C)[C@H]2CC[C@]3(C)[C@@H]([C@H](C)CC4(O)CCC(C)(C)CC4)CC[C@H]3[C@H]12` [Compound U6477], for which the EC50 in experiment [1] worked out at 747 nM. On NMDA receptor 2B, the EC50 turned out to be 698 nM and the Emax is 86%.

Take `C[C@H](CC1(O)CCC(C)(C)CC1)[C@H]1CC[C@H]2[C@@H]3[C@@H](C)C=C4C[C@@](C)(O)CC[C@]4(C)[C@H]3CC[C@]12C` [Compound U6478]: the values for the EC50 (in experiment [1]; at NMDA receptor 2B) were 191 nM and 160 nM, respectively. The Emax on NMDA receptor 2B was 127%.

`CC[C@]1(O)CC[C@@]2(C)[C@@H](C[C@H](O)[C@@H]3[C@@H]2CC[C@]2(C)[C@@H]([C@H](C)CCC(C)(C)O)CC[C@@H]32)C1` [Compound U6479]: the EC50 in experiment [1] is above 10000 nM; on NMDA receptor 2B, 1420 nM. The Emax on NMDA receptor 2B turned out to be 92%.

As a reminder, the EC50 is the concentration at which the effect is half-maximal. As usually defined, the Emax is the size of the effect at its maximum, as opposed to the concentration needed.
